Laboratory results reported in patent publication US6015879A, “Peptide and peptide analog protease inhibitors” (Sibia Neurosciences, Inc., priority 1995, dated 2000).
Non-standard residues stand in square brackets, D forms with d. Residues, ends and D or L forms follow the SMILES beside them. ξ: configuration not given here. *: point of attachment. Chg = N[CH](C(=O)O)C1CCCCC1; Nle = CCCC[CH](N)C(=O)O; Cbz = O=C(OCc1ccccc1)*; ξNle = CCCCC(N)C(=O)O; CHN2 = [N-]=[N+]=C*

These compounds were tested on Aβ formation in HGB 717/Swed cells (assay: Immunoblot assay for Aβ peptide (inhibition of Aβ formation)). Conditions: concentration of 10 μM, overnight, relative to DMSO control.
Assay type: cell-based, Human

SMILES | % INHIBITION OF Aβ [%]
CC(=O)N[C@@H](CC(C)C)C(=O)N[C@@H](CC(C)C)C(=O)NC(C=O)CC1CCCCC1 (mixture of isomers) [Ac-L-L-Cha-(H), N-Ac-L-Leu-L-Leu-DL-cyclohexylalaninal] | 46
C=C(C)CC(C=O)NC(=O)[C@H](Cc1ccccc1)NC(=O)[C@H](CC(C)C)NC(=O)OCc1ccccc1 (mixture of isomers) [Cbz-L-F-Lene-(H), (2SR)-N-Cbz-L-Leu-L-Phe-N-[2-(4-methyl-4-pentenal)]amide] | 69
C=C(C)CC(C=O)NC(=O)[C@H](CC(C)C)NC(=O)[C@H](CC(C)C)NC(=O)OCc1ccccc1 (mixture of isomers) [Cbz-L-L-Lene-(H), (2SR)-N-Cbz-L-Leu-L-Leu N-[2-(4-methyl-4-pentenal)]amide] | 95

Same assay, conditions: concentration of 40 μM, overnight, relative to DMSO control

SMILES | % INHIBITION OF Aβ [%]
C=C(C)CC(C=O)NC(=O)[C@H](CC(C)C)NC(=O)[C@H](CC(C)C)OCc1ccccc1 (mixture of isomers) [2S-benzoxyvaleric-L-Lene-(H), (2SR)-N-[(2S)-2-benzoxy-4-methylpentanoyl]-L-Leu N-[2-(4-methyl-4-pentenal)]amide] | 85
CC(C)C[C@H](NC(=O)OCc1ccccc1)C(=O)N[C@@H](Cc1ccccc1)C(=O)NC(C=O)CC1CCCCC1 (mixture of isomers) [Cbz-L-F-Cha-(H), (2SR)-N-Cbz-L-Leu-L-Phe-DL-cyclohexylalaninal] | 100
CCCCC(C=O)N(C)C(=O)[C@H](CC(C)C)NC(=O)[C@H](CC(C)C)NC(=O)OCc1ccccc1 (mixture of isomers) [Cbz-L-L-[CH3]-Nl-(H), N-Cbz-L-Leu-L-Leu-DL-(methyl)norleucinal] | 97
CCCCC(C=O)NC(=O)[C@H](CC(C)C)N(C)C(=O)[C@H](CC(C)C)NC(=O)OCc1ccccc1 (mixture of isomers) [Cbz-L-[CH3]-L-Nl-(H), N-Cbz-L-Leu-L-(methyl)Leu-DL-norleucinal] | 77
CCCCC(C=O)NC(=O)C(CC(C)C)NC(=O)C1CCCN1C(=O)OCc1ccccc1 [Cbz-P-L-Nl-(H), N-Cbz-L-Pro-L-Leu-L-norleucinal] (Cbz-Pro-Leu-[Nle]-aldehyde; configuration not given here) | 80

Same assay, conditions: concentration of 50 μM, overnight, relative to DMSO control

SMILES | % INHIBITION OF Aβ [%]
CCCCC(C=O)NC(=O)[C@H](CC(C)C)NC(=O)[C@H](CC(C)C)NC(=O)OCC1c2ccccc2-c2ccccc21 (mixture of isomers) [Fmoc-L-L-Nl-(H), N-Fmoc-L-Leu-L-Leu-DL-norleucinal] | 89

Same assay, conditions: concentration of 75 μM, overnight, relative to DMSO control

SMILES | % INHIBITION OF Aβ [%]
CCCCC(NC(=O)[C@H](CC(C)C)NC(=O)[C@H](CC(C)C)NC(C)=O)C(=O)C(F)(F)F (mixture of isomers) [Ac-L-L-Nl-(TFMK), (3SR)-N-Ac-L-Leu-L-Leu N-[3-(1,1,1-trifluoro-2-oxoheptyl)]amide] | 50
CC=CCC(C=O)NC(=O)[C@H](CC(C)C)NC(=O)[C@H](CC(C)C)NC(C)=O (mixture of isomers) [Ac-L-L-Nlene-(H), (2SR)-N-Ac-L-Leu-L-Leu N [2-(trans-4-hexenal)]amide] | 96
CC(=O)NC(CC(C)C)C(=O)NC(CC(C)C)C(=O)NC(C=O)C1CCCCC1 [Ac-L-L-Chg-(H)] (Ac-Leu-Leu-[Chg]-aldehyde; configuration not given here) | 99
CCCCC(C#N)NC(=O)[C@H](CC(C)C)NC(=O)[C@H](CC(C)C)NC(C)=O (stereo partly drawn) [Ac-L-L-Nl-(CN), (2S)-N-Ac-L-Leu-L-Leu N-[2-(hexanenitrile)]amide] | 94
CCCCC(NC(=O)[C@H](CC(C)C)NC(=O)[C@H](CC(C)C)NC(C)=O)C(=O)C=[N+]=[N-] (stereo partly drawn) [Ac-L-L-Nl-(DM), N-Ac-L-Leu-L-Leu-L-Nle-COCHN2] (Ac-Leu-Leu-[ξNle]-CHN2) | 87
